Experimental data published in PMC4405350, “From Broad-Spectrum Biocides to Quorum Sensing Disruptors and Mussel Repellents: Antifouling Profile of Alkyl Triphenylphosphonium Salts” (PLoS ONE, 2015).
Where two headings read alike, the source gives them in different places.

Legend:
[1] = test system: Cellulophaga lytica CECT 5014; assay: Marine bacteria growth inhibition (broth microdilution, OD625); assay type: cell-based; details: Cellulophaga lytica, read-out: IC50 C. lytica
Experimental: (§1) All the biological assays were run by triplicate. […] For the active products, serial dilutions were performed to calculate the half-maximal inhibitory concentrations (IC50) or the minimal inhibitory concentrations (MIC). Unless otherwise stated, the test concentrations were 100, 50, 25, 10, 5, 2.5, 1, 0.5 and 0.1 μM. Dose-response curves were adjusted with GraphPad Prism 5 software using a four-parameter non-linear regression model.
(§2) Growth inhibition was assessed in Marine Broth (Conda) according to CLSI guidelines for broth microdilution susceptibility testing. The incubation time was 24 h and the incubation temperature was 30 °C.

[2] = test system: Cobetia marina CECT 4278; assay: as above; assay type: cell-based; details: Cobetia marina, read-out: IC50 C. marina
Experimental: as §1, §2

[3] = test system: Pseudoalteromonas atlantica CECT 579; assay: as above; assay type: cell-based; details: Pseudoalteromonas atlantica, read-out: IC50 P. atlantica
Experimental: as §1, §2

[4] = test system: Shewanella algae CECT 5021; assay: as above; assay type: cell-based; details: Shewanella algae, read-out: IC50 S. algae
Experimental: as §1, §2

[5] = test system: Vibrio alginolyticus CECT 521; assay: as above; assay type: cell-based; details: Vibrio alginolyticus, read-out: IC50 V. alginolyticus
Experimental: as §1, §2

[6] = test system: Vibrio anguillarum CECT 4347; assay: as above; assay type: cell-based; details: Vibrio anguillarum, read-out: IC50 V. anguillarum
Experimental: as §1, §2

[7] = test system: Fusarium sp.; assay: Marine-derived fungi growth inhibition (OD405); assay type: cell-based; details: Fusarium, 120 h, 5 days, 26 °C
Experimental: All the biological assays were run by triplicate.
Three strains of marine-derived fungi were kindly provided by Dr. Á. Trigos (University of Veracruz, Mexico). The strains were isolated from reef organisms collected from the Veracruz Reef System and identified as Aspergillus sp., Fusarium sp. and Alternaria sp..
Fungal strains were cultured in Potato-Dextrose Agar (PDA) supplemented with filtered seawater (FSW) (50% v/v) at 26 °C for 5 days prior to experiments. […] Briefly, fungal inocula were prepared by addition of 5 ml of sterile saline solution to the cultures. Gently swabbing released conidia. […] The plates were incubated for 5 days at 26 °C. The calculation of the half-maximal inhibitory concentrations (IC50) was performed using OD405 as endpoint.

[8] = test system: Amphora sp.; assay: Benthic diatom growth inhibition (chlorophyll-a); assay type: cell-based; details: 120 h, read-out: IC50 Amphora sp.
Experimental: as §1
(§3) Five strains of benthic diatoms, Nitszchia sp. […] The Nitzschia and Navicula strains were purchased from the Spanish Bank of Algae (Marine Biotechnology Center, University of Las Palmas de Gran Canaria). The other three strains were kindly provided by Dr. G. Courtois (University of Las Palmas de Gran Canaria). Diatoms were cultured at 19±1 °C in Erlenmeyer flaks (250 ml) containing 150 ml of Guillard’s F/2 medium, and subjected to a photoperiod of 18:6. Tests were run in 48-well plates. Inocula were prepared by adjusting diatom concentration to 2–4 × 10^6 cells ml^-1 using a Neubauer chamber. Test products were dissolved in F/2 medium (500 μl) to which diatom inocula (500 μl) were added. Thus, the final assay volume was 1 ml and the starting cell densities were ca. 1–2 x 10^6 diatoms ml^-1. Plates were incubated under the abovementioned conditions for 5 days and then chlorophyll-a (Chla) was quantified.
(§4) In order to extract Chla, the content of each well was transferred to a microcentrifuge tube and centrifuged at 10,000 rpm for 10 min. The supernatants were discarded and 200 μl of DMSO were added to the pellets. The tubes were incubated at 65 °C for 2 h in total darkness and vortexed every 30 min. Then, the content of each tube was transferred to a 96-well plate and the amount of Chla was determined spectrophotometrically. Path length correction factor for the DMSO extracts was determined.

[9] = test system: Cylindrotheca sp.; assay: Benthic diatom growth inhibition (chlorophyll-a); assay type: cell-based; details: 120 h, read-out: IC50 Cylindrotheca sp.
Experimental: as §1, §3, §4

[10] = test system: Navicula cf. salinicola BEA 0055; assay: Benthic diatom growth inhibition (chlorophyll-a); assay type: cell-based; details: 120 h, read-out: IC50 Navicula cf. salinicola
Experimental: as §1, §3, §4

[11] = test system: Nitzschia sp.; assay: Benthic diatom growth inhibition (chlorophyll-a); assay type: cell-based; details: 120 h, read-out: IC50 Nitzschia sp.
Experimental: as §1, §3, §4

[12] = test system: Phaeodactylum tricornutum; assay: Benthic diatom growth inhibition (chlorophyll-a); assay type: cell-based; details: Phaeodactylum tricornutum, 120 h, read-out: IC50 P. tricornutum
Experimental: as §1, §3, §4

[13] = test system: Gayralia oxysperma spores; assay: Macroalgal spore germination inhibition; assay type: cell-based; details: 6 days, 19±1 °C
Experimental: as §1
To evaluate the effect of the phosphonium salts on the germination of macroalgal spores, Gayralia oxysperma (Kützing) K.L.Vinogradova was selected as model organism. G. oxysperma (Ulotrichales, Chlorophyta) is a cosmopolitan member of the Ulvophyceae. Unlike Ulva species, which produce biflagellate male and female gametes, as well as quadriflagellate spores, G. oxysperma only produces biflagellate spores. This is an advantage as bioassays can be conducted straightforwardly without the need to distinguish between gamete-producing and zoospore-producing plants. […] Fresh fertile fragments were selected and placed in Petri dishes. Spores were then released in Von Stosch Solution (VSS) by the osmotic method. Bioassays were conducted in flat-bottom 96-well plates as described by Chambers and co-workers, with slight modifications. Each well was filled with 50 μl of the appropriate dilution of the products in VSS to which 50 μl of spore inoculum (ca. 2 x 10^5 spores ml^-1) were added. Plates were incubated at 19±1 °C for 6 days. After the incubation time, the bottom of each well was examined for the presence of germinated spores with an inverted microscope. A spore was considered as germinated when the germ tube was visible. The MIC was recorded as the lowest concentration inhibiting spore germination.

[14] = test system: Artemia salina nauplii; assay: in vivo; details: instar I nauplii, 24 h, 28 °C
Experimental: as §1
Artemia salina cysts (INVE Aquaculture, Ghent, Belgium) were hatched in brackish water (30 ‰ salinity) at 28 °C with aeration and under constant light. Newly hatched instar I nauplii were harvested for bioassays. Tests were conducted in 96-well plates (15±5 nauplii per well, test volume = 200 μl). The number of dead and alive individuals was recorded after 24 h of incubation at 28 °C and 24-hour photoperiod.

[15] = CECT5014, growth inhibition, 24 h, 30 °C, three replicates
[16] = CECT4278, growth inhibition, 24 h, 30 °C, three replicates
[17] = CECT579, growth inhibition, 24 h, 30 °C, three replicates
[18] = CECT5021, growth inhibition, 24 h, 30 °C, three replicates
[19] = CECT521, growth inhibition, 24 h, 30 °C, three replicates
[20] = CECT4347, growth inhibition, 24 h, 30 °C, three replicates

Row | SMILES | IC50 [7] [µM] | MIC G. oxysperma (lowest concentration inhibiting spore germination) [13] [µM] | IC50 A. salina (LC50) [14] [µM] | IC50 [1, 15] [µM] | IC50 [2, 16] [µM] | IC50 [3, 17] [µM] | IC50 [4, 18] [µM] | IC50 [5, 19] [µM] | IC50 [6, 20] [µM] | IC50 ([8]; growth, 5 days, chlorophyll-a) [µM] | IC50 ([9]; growth, 5 days, chlorophyll-a) [µM] | IC50 ([10]; growth, 5 days, chlorophyll-a) [µM] | IC50 ([11]; growth, 5 days, chlorophyll-a) [µM] | IC50 ([12]; growth, 5 days, chlorophyll-a) [µM] | also measured
1 | CCCCCCCCCCCC[P+](c1ccccc1)(c1ccccc1)c1ccccc1 [Compound 12] | 6.6 | 50 | 2.4 | – | – | – | – | – | – | – | – | – | – | – | IC50 ([1]; CECT5014, 24 h): 1.7 µM; IC50 ([2]; CECT4278, 24 h): 5.1 µM; IC50 ([3]; CECT579, 24 h): 1.1 µM; IC50 ([4]; CECT5021, 24 h): 3 µM; IC50 ([5]; CECT521, 24 h): 26.3 µM; IC50 ([6]; CECT4347, 24 h): 27.5 µM; IC50 [8]: 4.8 µM; IC50 [9]: 1 µM; IC50 [10]: 1.3 µM; IC50 [11]: 2.2 µM; IC50 [12]: 1.2 µM
2 | CCCCCCCCCCCCC[P+](c1ccccc1)(c1ccccc1)c1ccccc1 [Compound 13] | 6.5 | 50 | 0.9 | 1.7 | 5 | 1.2 | 3.6 | 11.3 | 5.7 | 4.5 | 1.7 | 1.8 | 2.2 | 1 | –
3 | CCCCCCCCCCCCCC[P+](c1ccccc1)(c1ccccc1)c1ccccc1 [Compound 14] | 5.1 | 50 | 1.8 | 2 | 5.3 | 2.3 | 1.2 | 12.7 | 1.6 | 2.1 | 4.5 | 1.2 | 3.5 | 1.5 | –
4 | CCCCCCCCCCCCCCC[P+](c1ccccc1)(c1ccccc1)c1ccccc1 [Compound 15] | 4.2 | 50 | 2.8 | 1.9 | 5.5 | 2.9 | 3.8 | 5.6 | 2.7 | 3.1 | 2.2 | 2.8 | 3.6 | 1.1 | –
5 | CCCCCCCCCCCCCCCC[P+](c1ccccc1)(c1ccccc1)c1ccccc1 [Compound 16] | 9.3 | 50 | 1.8 | 1.5 | 9.9 | 6.8 | 5.4 | 16.9 | 5.3 | 2.6 | 4.7 | 1.3 | 4.9 | 1.3 | –
6 | CCCCCCCCCCCCCCCCCC[P+](c1ccccc1)(c1ccccc1)c1ccccc1 [Compound 17] | 8.8 | >100 | <0.5 | 11.3 | > 100 | 46.1 | 72.5 | > 100 | 31.8 | 4.2 | 8 | 1.2 | 7.6 | 7.4 | –
7 | CCCCCCCCCCCCCCCCCCC[P+](c1ccccc1)(c1ccccc1)c1ccccc1 [Compound 18] | 7.3 | >100 | <0.5 | 5.3 | > 100 | > 100 | > 100 | > 100 | > 100 | 3.4 | 6.9 | 0.8 | 4.8 | 16.9 | –
8 | c1ccc([P+](CCCCCCCCCCCC[P+](c2ccccc2)(c2ccccc2)c2ccccc2)(c2ccccc2)c2ccccc2)cc1 [Compound 20] | 5.6 | 5 | 3.0 | 1.1 | 7.3 | 0.8 | 2.2 | 93.5 | 8 | 1.6 | 1.3 | 0.6 | 2 | 1 | –
